In patent publication US9187539B2, “Compositions having antiangiogenic activity and uses thereof” (The Johns Hopkins University, priority 2005, dated 2015):

Legend:
[1] = tested on: human umbilical vein endothelial cells (HUVECs); test: HUVEC proliferation assay (WST-1), 3-day, 2,000 cells per well; type: cell-based; settings: 3-day assay; for anti-proliferative activity in words at high peptide concentration: high/highest applied concentration (30 μg/ml where stated); for anti-proliferative activity in words: overall; for anti-proliferative activity (maximum or stated level), scaled so that TNP-470 = 100%: 0.01-30 μg/ml
Description: In addition to the 2 and 4 day proliferation experiment where 5,000 cells per well were seeded, the effects of the peptides on the proliferating ability of HUVECs were also studied using cells seeded at a density of 2,000 cells per well. This lower cell seeding density allowed the experiment to be extend for an additional day without changing the cell medium. The effects of the peptides when applied to the cells for 3 consecutive days is also reported herein. The proliferation assay again involved two steps. During the first step 2,000 cells per well for a 96-well plate were seeded without any extracellular matrix substrate on the wells overnight (8 hours). The initial cell culture medium was removed using a multichannel pipetor. To synchronize the cells, the cells were serum starved for 4 hours and the candidate peptides were applied. During serum starvation the cell culture medium was changed from a “full” medium to the “basal” medium, which contained no growth factors or serum. Serum starvation for 4 hours had no effect on the proliferation of the cells. For this assay, the logarithmic scale of four different concentrations of 0.01 μg/ml, 0.1 μg/ml, 1 μg/ml and 10 μg/ml of peptide was used. In addition, a larger concentration of 30 μg/ml peptide was also applied. Each of the concentrations was again tested in quadruplicate. After the third day of peptide application the WST-1 dye was applied for approximately 2 to 4 hours (usually after 3 hours the color saturates). The proliferation was later tested on the ELISA plate reader as described for the 2 and 4 day assay. Note that the 2- and 4-day and the 3-day protocols differed in that 5,000 cells/well versus 2,000 cells/well seeded, respectively.

[2] = tested on: human umbilical vein endothelial cells (HUVECs); test: HUVEC proliferation assay (WST-1), 2- and 4-day, 5,000 cells per well; type: cell-based; settings: for concentration-response profile in words: 2- and/or 4-day assay; for anti-proliferative activity in words at 0.01 μg/ml: 0.01 μg/ml peptide
Description: The effect of the various peptides on cell proliferation was assayed, by administering the peptides to human umbilical vein endothelial cells (HUVECs) in culture. 45 peptides belonging to four distinct families of proteins including the thrombospondin-1 containing proteins, the C-X-C chemokines, collagen derived peptides and peptides from tissue inhibitors of metalloproteinases were tested. The potency of each of the peptides was tested using the proliferation assay at 2 days and 4 days following administration of the peptides and a similar assay using a different cell density at 3 days. In the four-day experiments, the cell medium was changed after the second day of incubation and the peptide was replaced at the initial concentration together with the medium. TNP-470 is an antiangiogenic compound that was used as a positive control for assessing anti-angiogenic efficacy. The activity of each polypeptide was, therefore, expressed as a percentage of TNP-470 activity, i.e., the optical density obtained experimentally is scaled such that the negative control is 0% and the positive control is 100% as explained below (FIG. 4). Each plate included a well having HUVEC cells that received 0.1 μg/ml TNP-470. For example, a peptide having the same effect on endothelial cell proliferation would have 100% of the activity of TNP-470. Note that activity could exceed 100%. In this assay, the effects of the predicted anti-angiogenic fragments on the ability of HUVECs to proliferate was characterized. […] A commonly used methodology to test for proliferation is to monitor the viability and metabolic activity of endothelial cells, in the presence of the anti-angiogenic fragments at different concentrations and various time steps. The cell proliferation reagent WST-1 was used as a substrate/assay to measure the metabolic activity of viable cells. WST-1 is a colorimetric, non-radioactive assay and can be performed in a microplate. It is suitable for measuring cell proliferation, cell viability or cytotoxicity. The assay is based on the reduction a red tetrazolium salt, WST-1, by viable, metabolically active, cells to form the yellow formazan crystals soluble in the cell medium. […] The cells are cultured described above. Once cells have reached 80% confluence they are trypsinized and resuspended in EGM-2. The cell density is estimated using a hemocytometer. All of the endothelial cells used were from passage 4 to passage 8. The proliferation assay involved two steps. During the first step the cells, approximately 5,000 cells per well for a 96-well plate, were seeded without any extracellular matrix substrate on the wells overnight (8 hours). The initial cell culture medium was removed using a multichannel pipetor and the candidate peptides were applied. A logarithmic scale of four different concentrations of 0.01 μg/ml, 0.1 μg/ml, 1 μg/ml and 10 μg/ml of each peptide was used. Each of the concentrations was tested in quadruplicate. The viability of the cells was challenged at 2 and 4 days upon the application of the peptide. As a positive control for decreased viability, 0.1 μg/ml of TNP-470 (O-(chloro-acetyl-carbamoyl) fumagillol, a synthetic analogue of fumagillin; TNP-470 was provided by NCI, was provided along with the medium, and as a negative control for normal viability, the cells were cultured without the addition of any agent. The cells were then incubated with 10 μl per well of the red WST-1 reagent for approximately 2 to 4 hours. During this incubation period, viable cells converted, in their mitochondria, the red WST-1 to the yellow formazan crystals which dissolve in the medium. The second step of the assay involved the quantification of the changes in proliferation which was performed by measuring the change in color after lysing the cells. The samples were read using the ELISA plate reader Victor3 V (Perkin Elmer) at a wavelength of […]. The amount of color produced is directly proportional to the number of viable cells. […]

[3] = 2- and 4-day assay, day not specified
[4] = 2- and 4-day assay, day not specified or constant throughout the four days
[5] = 10 μg/ml peptide, 2- and 4-day assay
[6] = 4 days of peptide application, 0.01-10 μg/ml

Sequence: QPWSQCSATCGDGVRERRR [SEQ ID NO: 64, THSD1 AAQ88516.1: 347-365]
- anti-proliferative activity in words at high peptide concentration [1]: substantial increase in activity
- peptide concentration at which maximum activity was observed [2, 3]: 0.01 µg/mL
- anti-proliferative activity (maximum or stated level), scaled so that TNP-470 = 100% [2, 4]: approximately 20%

Sequence: SAWRACSVTCGKGIQKRSR [SEQ ID NO: 43, Fibulin-6 CAC37630.1: 1574-1592]
- concentration-response profile in words [1]: peptide activity increasing as concentration increased
- anti-proliferative activity (maximum or stated level), scaled so that TNP-470 = 100% [2, 4]: 30%

Sequence: SEWSDCSVTCGKGMRTRQR [SEQ ID NO: 73, VSGP/F-spondin BAB18461.1: 621-639]
- anti-proliferative activity in words at high peptide concentration [1]: increased activity
- concentration-response profile in words [2]: biphasic profile
- anti-proliferative activity in words ([2]; 2 days of peptide application): not statistically significant
- peptide concentration at which maximum activity was observed ([2]; 4 days): 0.01 µg/mL
- anti-proliferative activity in words ([2]; 4 days of peptide application): notable activity

Sequence: SKWSECSRTCGGGVKFQER [SEQ ID NO: 29, ADAMTS-18 Q8TE60: 596-614]
- anti-proliferative activity in words at high peptide concentration [1]: significantly increased
- anti-proliferative activity, TNP-470 = 100% ([2]; 1 μg/ml peptide, 2 days): 30%
- anti-proliferative activity in words at 10 μg/ml [2, 5]: reduced
- concentration-response profile in words [2]: biphasic response

Sequence: SPWSKCSAACGQTGVQTRTR [SEQ ID NO: 39, CILP AAQ89263.1: 156-175]
- peptide concentration at which maximum activity was observed [1]: 0.1 µg/mL
- anti-proliferative activity, TNP-470 = 100% [2, 5]: 5%
- anti-proliferative activity, TNP-470 = 100% ([2]; 0.01 and 0.1 μg/ml peptide, 2- and 4-day assay): 15%
- peptide concentration at which maximum activity was observed [2, 3]: 1 µg/mL
- anti-proliferative activity (maximum or stated level), scaled so that TNP-470 = 100% [2, 4]: ~30%
- concentration-response profile in words [2]: biphasic activity

Sequence: SPWSPCSGNCSTGKQQRTR [SEQ ID NO: 65, THSD3 AAH33140.1: 280-298]
- anti-proliferative activity in words [1]: did not effect endothelial cell proliferation
- anti-proliferative activity in words ([2]; 2- and 4-day assay, overall): did not effect endothelial cell proliferation

Sequence: SPWSPCSTSCGLGVSTRI [SEQ ID NO: 74, WISP-1 AAH74841.1: 221-238]
- anti-proliferative activity in words at high peptide concentration [1]: reached higher values
- anti-proliferative activity in words [1]: intermediate levels
- anti-proliferative activity in words ([2]; 2 days of peptide application): not statistically significant
- anti-proliferative activity (maximum or stated level), scaled so that TNP-470 = 100% [2, 6]: ~20%

Sequence: SPWSQCSVRCGRGQRSRQVR [SEQ ID NO: 69, TSRC1 AAH27478.1: 140-159]
- anti-proliferative activity in words at high peptide concentration [1]: activity increased
- concentration-response profile in words [2]: biphasic
- anti-proliferative activity in words ([2]; 2 days of peptide application): minimal activity
- peptide concentration at which maximum activity was observed ([2]; 4 days): 0.1 µg/mL
- anti-proliferative activity in words ([2]; 4 days of peptide application): prominent activity
- anti-proliferative activity (maximum or stated level), scaled so that TNP-470 = 100% [2, 6]: 25%

Sequence: SPWSQCTASCGGGVQTR [SEQ ID NO: 24, ADAMTS-16 Q8TE57: 1133-1149]
- anti-proliferative activity in words at high peptide concentration [1]: increase in peptide activity
- concentration-response profile in words [2]: biphasic response
- anti-proliferative activity in words ([2]; 4 days of peptide application): strong activity
- anti-proliferative activity (maximum or stated level), scaled so that TNP-470 = 100% [2, 6]: 30%

Sequence: TAWGPCSTTCGLGMATRV [SEQ ID NO: 75, WISP-2 AAQ89274.1: 199-216]
- anti-proliferative activity (maximum or stated level), scaled so that TNP-470 = 100% [1]: 20%
- anti-proliferative activity in words at 0.01 μg/ml ([2]; 2- and 4-day assay): quite potent
- concentration-response profile in words [2]: biphasic response

Sequence: TEWSACNVRCGRGWQKRSR [SEQ ID NO: 71, UNC5D AAQ88514.1: 259-277]
- concentration-response profile in words [1]: biphasic
- anti-proliferative activity (maximum or stated level), scaled so that TNP-470 = 100% [1]: 30%
- anti-proliferative activity (maximum or stated level), scaled so that TNP-470 = 100% [2, 4]: 20%

Sequence: TEWSACSKTCGMGISTRV [SEQ ID NO: 41, CTGF CAC44023.1: 204-221]
- anti-proliferative activity in words [1]: resembled those observed in the 2-day assay
- anti-proliferative activity in words ([2]; 2 days of peptide application): low
- peptide concentration at which maximum activity was observed ([2]; 4 days): 1 µg/mL
- anti-proliferative activity (maximum or stated level), scaled so that TNP-470 = 100% [2, 6]: 40%

Sequence: TEWSVCNSRCGRGYQKRTR [SEQ ID NO: 70, UNC5C AAH41156.1: 267-285]
- anti-proliferative activity, TNP-470 = 100% ([1]; 30 μg/ml peptide): 40%
- peptide concentration at which maximum activity was observed [1]: 10 µg/mL
- anti-proliferative activity (maximum or stated level), scaled so that TNP-470 = 100% [1]: 20%
- anti-proliferative activity in words ([2]; 2 days of peptide application): negligible activity
- anti-proliferative activity (maximum or stated level), scaled so that TNP-470 = 100% [2, 6]: 20%

Sequence: TEWTACSKSCGMGFSTRV [SEQ ID NO: 46, NOVH AAL92490.1: 211-228]
- concentration-response profile in words [1]: monotonic increase with concentration
- peptide concentration at which maximum activity was observed [2, 3]: 0.01 µg/mL
- anti-proliferative activity (maximum or stated level), scaled so that TNP-470 = 100% [2, 4]: 20%

Sequence: TKWTPCSRTCGMGISNRV [SEQ ID NO: 76, WISP-3 CAB16556.1: 191-208]
- concentration-response profile in words [1]: increased significantly as the concentration increased
- anti-proliferative activity in words at 0.01 μg/ml ([2]; 2- and 4-day assay): shows potency
- concentration-response profile in words [2]: biphasic

Sequence: TQWTSCSKTCNSGTQSRHR [SEQ ID NO: 38, C6 AAB59433.1: 30-48]
- concentration-response profile in words [1]: biphasic
- anti-proliferative activity (maximum or stated level), scaled so that TNP-470 = 100% [1]: 25%
- anti-proliferative activity (maximum or stated level), scaled so that TNP-470 = 100% [2, 6]: 35%

Sequence: TSWSQCSKTCGTGISTRV [SEQ ID NO: 42, CYR61 AAR05446.1: 234-251]
- peptide concentration at which maximum activity was observed [1]: 0.1 µg/mL
- anti-proliferative activity (maximum or stated level), scaled so that TNP-470 = 100% [1]: 30%
- peptide concentration at which maximum activity was observed [2, 3]: 0.01 µg/mL
- anti-proliferative activity (maximum or stated level), scaled so that TNP-470 = 100% [2, 4]: 30%
- concentration-response profile in words [2]: biphasic

Sequence: WDECSATCGMGMKKRHR [SEQ ID NO: 72, VSGP/F-spondin BAB18461.1: 567-583]
- anti-proliferative activity in words [1]: exhibited activity
- anti-proliferative activity in words ([2]; 2 days of peptide application): not statistically significant
- anti-proliferative activity (maximum or stated level), scaled so that TNP-470 = 100% [2, 6]: 10%

Sequence: WTRCSSSCGRGVSVRSR [SEQ ID NO: 66, THSD6 AAH40620.1: 44-60]
- concentration-response profile in words [1]: biphasic
- anti-proliferative activity (maximum or stated level), scaled so that TNP-470 = 100% [1]: ~30%
- peptide concentration at which maximum activity was observed [2, 3]: 0.1 µg/mL
- concentration-response profile in words [2]: biphasic
- anti-proliferative activity (maximum or stated level), scaled so that TNP-470 = 100% ([2]; 2 days of peptide application, 0.01-10 μg/ml): approximately 20%

Sequence: YCNIHQVCHYAQRNDRSYWL [SEQ ID NO: 86, α4CIV CAA56943.1: 1524-1543]
- concentration-response profile in words [1]: increasing at higher peptide concentrations
- anti-proliferative activity in words [1]: greater
- anti-proliferative activity in words ([2]; 2- and 4-day assay, overall): low anti-proliferative activity
